According to the supplement of paper PMC4862054:

The compounds below were run on CAL-51. Conditions: 72 h.
Experimental: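 Drug sensitivity and resistance testing (DSRT) of breast cancer cell lines in 384-well plates, 5 concentrations in 10-fold dilutions over a compound-specific 10,000-fold range. After 72 h, cytotoxicity was read by CellTox Green fluorescence and viability by CellTiter-Glo luminescence (multiplexed), normalised to DMSO and benzethonium chloride controls. EC50 is the inflection point of the fitted dose-response curve (bottom asymptote free, so it can be relative for partial curves) and is censored at the highest tested concentration. Rows with DSS 0 (no meaningful response) were excluded.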

Row | SMILES | EC50, CellTox Green
1 | CC[C@H](CC#N)OC(=O)N[C@@H](C)c1cccc(NC(=O)Nc2ccc(-c3cnco3)c(OC)c2)c1 [AVN944] | 0.176 µM
2 | Cc1c(N)nc([C@H](CC(N)=O)NC[C@H](N)C(N)=O)nc1C(=O)N[C@H](C(=O)N[C@H](C)[C@@H](O)[C@H](C)C(=O)N[C@H](C(=O)NCCc1nc(-c2nc(C(=O)NCCC[S+](C)C)cs2)cs1)[C@@H](C)O)[C@@H](OC1OC(CO)C(O)C(O)C1OC1OC(CO)C(O)C(OC(N)=O)C1O)c1cnc[nH]1 (some centres undefined) [Bleomycin] | 0.0205 µM
3 | CC(C)C[C@H](NC(=O)[C@H](CCc1ccccc1)NC(=O)CN1CCOCC1)C(=O)N[C@@H](Cc1ccccc1)C(=O)N[C@@H](CC(C)C)C(=O)[C@@]1(C)CO1 [Carfilzomib] | 0.00531 µM
4 | Nc1nc(Cl)nc2c1ncn2[C@@H]1O[C@H](CO)[C@@H](O)[C@@H]1F [Clofarabine] | 0.108 µM
5 | CCc1cnn2c(NCc3ccc[n+]([O-])c3)cc(N3CCCC[C@H]3CCO)nc12 [Dinaciclib] | 0.013 µM
6 | COc1cc2c(Oc3ccc(NC(=O)C4(C(=O)Nc5ccc(F)cc5)CC4)cc3F)ccnc2cc1OCCCN1CCOCC1 [Foretinib] | 0.251 µM
7 | CC(C)NC[C@@H](C(=O)N1CCN(c2ncnc3c2[C@H](C)C[C@H]3O)CC1)c1ccc(Cl)cc1 [GDC-0068] | 1.15 µM
8 | NC(=O)NO [Hydroxyurea] | 16.3 µM
9 | COc1cc2c(cc1-c1c(C)noc1C)ncc1[nH]c(=O)n([C@H](C)c3ccccn3)c12 [I-BET151] | 1.74 µM
10 | N[C@@H](Cc1ccc(N(CCCl)CCCl)cc1)C(=O)O [Melphalan] | 0.194 µM
11 | O=C(c1cc(Cc2n[nH]c(=O)c3ccccc23)ccc1F)N1CCN(C(=O)C2CC2)CC1 [Olaparib] | 8.3 µM
12 | CO[C@H](C(=O)[C@@H](O)[C@@H](C)O)[C@@H]1Cc2cc3cc(O[C@H]4C[C@@H](O[C@@H]5C[C@@H](O)[C@H](O)[C@@H](C)O5)[C@H](O)[C@@H](C)O4)c(C)c(O)c3c(O)c2C(=O)[C@H]1O[C@H]1C[C@@H](O[C@@H]2C[C@@H](O)[C@@H](O[C@@H]3C[C@](C)(O)[C@H](O)[C@@H](C)O3)[C@@H](C)O2)[C@H](O)[C@@H](C)O1 [Plicamycin] | 2.12 µM
13 | CN1CCc2c(c3ccccc3n2Cc2ccc(C(=O)NO)cc2)C1 [Tubastatin A] | 2.22 µM
14 | CC[C@@H]1C(=O)N(C)c2cnc(Nc3ccc(C(=O)N[C@H]4CC[C@H](N5CCN(CC6CC6)CC5)CC4)cc3OC)nc2N1C(C)C [Volasertib] | 0.0207 µM
